# Test results published in BindingDB's records for patent US10227314 (Sova Pharmaceuticals, 2019).
# Target: Cystathionine gamma-lyase (Homo sapiens, UniProt P32929)
# Test: CSE In Vitro Assay
# Sequence of Cystathionine gamma-lyase (P32929 whole entry): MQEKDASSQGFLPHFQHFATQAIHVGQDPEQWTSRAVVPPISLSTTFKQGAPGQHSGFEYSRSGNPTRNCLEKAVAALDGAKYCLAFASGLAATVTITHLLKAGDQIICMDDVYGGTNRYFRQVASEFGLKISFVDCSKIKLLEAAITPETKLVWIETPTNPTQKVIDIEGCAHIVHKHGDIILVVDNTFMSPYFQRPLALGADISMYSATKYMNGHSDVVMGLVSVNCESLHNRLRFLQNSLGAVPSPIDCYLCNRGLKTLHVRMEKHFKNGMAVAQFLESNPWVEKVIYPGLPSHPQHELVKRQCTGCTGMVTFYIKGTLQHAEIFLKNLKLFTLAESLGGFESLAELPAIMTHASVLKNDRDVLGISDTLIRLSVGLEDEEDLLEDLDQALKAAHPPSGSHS
structure (smiles),measurement,value
"C#CC[C@H](N)c1nnn[nH]1 [US10227314, Example 2]",IC50,< 25 µM
"N#CCC(N)c1nnn[nH]1 (configuration not stated) [US10227314, Example 1]",IC50,> 100 µM
